What was measured:
Mus musculus [1] = species: Mus musculus
Description: (§1) Compound (administered intraperitoneally) was assessed for neuroleptic activity to antagonize methyl phenidate induced stereotypes in mice

Adrenergic receptor beta = Adrenergic receptor beta (Rattus norvegicus, UniProt P18090+P10608+P26255)
Description: (§2) Effect on synaptosomal uptake inhibition of Noradrenaline (NA)

[2] = target: T1, Sodium-dependent serotonin transporter (Rattus norvegicus, UniProt P31652)
[3] = target: Sodium-dependent dopamine transporter (Rattus norvegicus, UniProt P23977)
Description: Effect on synaptosomal uptake inhibition of Dopamine transporter

[4] = target: Norepinephrine transporter (Rattus norvegicus, UniProt Q9WTR4)
Description: as §2

Mus musculus [5] = species: Mus musculus; test: Compound was assessed for thymoleptic activity by its ability to antagonize tetrabenazine ptosis in mice; format: functional
[6] = target: T1, Sodium-dependent serotonin transporter; test: Effect on synaptosomal uptake inhibition of 5-hydroxytryptamine (5-HT); format: functional
Rattus norvegicus [7] = species: Rattus norvegicus; test: animal or person; conditions: po
Description: (§3) Ability to induce catalepsy in rats perorally, an effect normally related to clinical extrapyramidal side effects

Rattus norvegicus [8] = test: Tested orally in rats for antagonism of stereotypies induced by amphetamine; format: functional; conditions: Rattus norvegicus, po; read-out: ED50
Rattus norvegicus [9] = species: Rattus norvegicus
Description: as §3

Mus musculus [10] = species: Mus musculus; test: animal or person; conditions: ip
Description: as §1

Rattus norvegicus [11] = test: Compound was tested orally (po) in rats for antagonism of stereotypies induced by amphetamine; value ranges from 2.5-4.7; format: functional
Rattus norvegicus [12] = test: Compound was tested orally (po) in rats for its ability to induce catalepsy, an effect normally related to clinical extrapyramidal side effects;value ranges from 1.3-3.4; format: functional

T1 sequence (P31652 whole entry): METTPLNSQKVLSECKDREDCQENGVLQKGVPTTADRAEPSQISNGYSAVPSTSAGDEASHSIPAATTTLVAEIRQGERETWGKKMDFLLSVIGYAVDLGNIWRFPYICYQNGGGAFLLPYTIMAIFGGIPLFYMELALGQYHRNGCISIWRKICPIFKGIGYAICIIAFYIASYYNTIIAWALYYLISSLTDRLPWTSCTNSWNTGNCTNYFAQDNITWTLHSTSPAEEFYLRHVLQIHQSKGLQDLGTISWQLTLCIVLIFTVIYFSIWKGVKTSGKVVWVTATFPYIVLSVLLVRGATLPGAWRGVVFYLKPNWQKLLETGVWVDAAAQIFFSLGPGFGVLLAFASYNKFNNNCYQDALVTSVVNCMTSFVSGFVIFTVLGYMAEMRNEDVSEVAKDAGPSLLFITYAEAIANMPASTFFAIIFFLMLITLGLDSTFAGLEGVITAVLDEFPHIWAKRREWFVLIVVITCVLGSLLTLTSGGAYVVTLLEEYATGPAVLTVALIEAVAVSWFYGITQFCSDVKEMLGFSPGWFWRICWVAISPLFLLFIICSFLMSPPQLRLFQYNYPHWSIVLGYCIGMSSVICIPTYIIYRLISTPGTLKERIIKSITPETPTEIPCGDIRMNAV
Sodium-dependent dopamine transporter, sequence (P23977 whole entry): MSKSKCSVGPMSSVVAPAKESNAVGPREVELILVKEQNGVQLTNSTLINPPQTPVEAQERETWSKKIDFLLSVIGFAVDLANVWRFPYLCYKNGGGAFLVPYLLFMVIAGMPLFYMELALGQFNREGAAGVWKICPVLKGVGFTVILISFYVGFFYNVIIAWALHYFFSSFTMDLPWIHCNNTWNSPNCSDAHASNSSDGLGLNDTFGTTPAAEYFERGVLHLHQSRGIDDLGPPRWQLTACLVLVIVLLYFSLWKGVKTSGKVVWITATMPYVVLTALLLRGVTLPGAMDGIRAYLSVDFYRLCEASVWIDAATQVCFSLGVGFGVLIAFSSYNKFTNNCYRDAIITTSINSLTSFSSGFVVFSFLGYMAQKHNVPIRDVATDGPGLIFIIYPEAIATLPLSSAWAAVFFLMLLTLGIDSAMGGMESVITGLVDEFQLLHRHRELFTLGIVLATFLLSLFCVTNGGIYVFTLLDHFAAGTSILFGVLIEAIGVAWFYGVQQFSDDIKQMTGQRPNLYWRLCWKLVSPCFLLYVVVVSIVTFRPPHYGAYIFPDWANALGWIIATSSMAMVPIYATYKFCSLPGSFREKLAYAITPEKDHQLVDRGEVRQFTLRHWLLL
Norepinephrine transporter, sequence (Q9WTR4 whole entry): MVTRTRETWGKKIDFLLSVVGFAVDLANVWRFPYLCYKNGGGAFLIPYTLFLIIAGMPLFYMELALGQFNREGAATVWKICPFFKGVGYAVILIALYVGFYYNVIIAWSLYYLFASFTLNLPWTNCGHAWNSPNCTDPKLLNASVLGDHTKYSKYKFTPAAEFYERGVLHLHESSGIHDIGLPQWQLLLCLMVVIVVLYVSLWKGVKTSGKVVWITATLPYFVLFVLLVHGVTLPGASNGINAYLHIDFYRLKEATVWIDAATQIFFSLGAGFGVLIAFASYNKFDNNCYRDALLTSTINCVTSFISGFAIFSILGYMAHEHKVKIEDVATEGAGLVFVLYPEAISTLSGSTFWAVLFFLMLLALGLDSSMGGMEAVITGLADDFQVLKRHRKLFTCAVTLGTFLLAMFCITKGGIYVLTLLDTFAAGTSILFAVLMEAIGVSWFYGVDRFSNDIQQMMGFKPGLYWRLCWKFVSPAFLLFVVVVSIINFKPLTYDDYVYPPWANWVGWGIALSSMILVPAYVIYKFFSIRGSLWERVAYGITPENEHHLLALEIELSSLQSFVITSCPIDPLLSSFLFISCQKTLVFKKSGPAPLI
Description for Dopamine receptor: Effect on synaptosomal uptake inhibition of Dopamine receptor

Row | SMILES | ED50 (Mus musculus [1]) | IC50 (Adrenergic receptor beta) | IC50 [2] | IC50 [3] | IC50 [4] | ED50 (Mus musculus [5]) | IC50 [6] | ED50 (Rattus norvegicus [8]) | other results
1 | Cl.Cl.OCCCCN1CCN(C2CC(c3ccc(F)cc3)c3ccc(F)cc32)CC1 (cis isomer) | 54 µM/kg | 0.03 µM | 1.9 µM | 0.009 µM |  |  |  |  | 
2 | CN(C)C[C@@H]1C2CCC(CC2)[C@@H]1c1ccc(Cl)c(Cl)c1 (relative stereo) |  |  |  |  | 0.0054 µM | 43 µmol/kg | 0.051 µM |  | 
3 | CN1CCN(C2CC(c3ccc(Cl)c(Cl)c3)c3ccccc32)CC1.Cl.Cl (single isomer, unassigned; 98) |  |  |  |  | 0.91 µM | > 89 µmol/kg | 2.3 µM |  | IC50 (Dopamine receptor): 1.7 µM
4 | Cl.Cl.OCCCCN1CCN(C2CC(c3ccc(F)cc3)c3ccc(F)cc32)CC1 (trans isomer) | 6.5 µM/kg | 0.019 µM | 0.61 µM | 0.025 µM |  |  |  | 7.7 µmol/kg | ED50 (Rattus norvegicus [7]): 47 µmol/kg
5 | OCCN1CCN(C2CC(c3ccc(F)cc3)c3ccc(C(F)(F)F)cc32)CC1 (trans isomer) | 0.07 µM/kg | 0.66 µM | 7 µM | 0.52 µM |  |  |  | 0.22 µmol/kg | ED50 (Rattus norvegicus [9]): 0.27 µM/kg
6 | OCCN1CCN(CC/C=C2/c3ccccc3Sc3ccc(C(F)(F)F)cc32)CC1 [Z-FLUPENTIXOL] |  |  |  |  |  |  |  |  | ED50 (Mus musculus [10]): 0.14 µmol/kg; ED50 (Rattus norvegicus [11]): 3.5 µmol/kg; ED50 (Rattus norvegicus [12]): 2.1 µmol/kg
